Among the test systems are HOP-92; CAKI-1; OVCAR-3; OVCAR-4; HOP-62; LOX IMVI; UO-31; TK-10; OVCAR-8; RXF 393; SK-MEL-2; UACC-62; NCI-H522; SR.
Holding throughout (assay): NCI anticancer screen, dose series, 48 h

Structures are written as SMILES.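 Compound exposure: 48 hours, 5 concentrations, 96-well plates. Abbreviation: GI50, concentration required for 50% inhibition of growth.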 Activity calls are given as the source filed them. No stated cut-off is given here; in the data, active = GI50 up to about 1.1 µM and inactive = higher.

16 compounds from ChEMBL document CHEMBL1201862, “PubChem BioAssay data set” (2004) can be followed below.

`COC(=O)C1=C(C(=O)OC)C2(C3C(SC)=CC(C)(C)CC3S1)N(Cc1ccccc1)CCN2Cc1ccccc1` (stereo not given): the GI50 with HOP-92 was < 0.01 µM (active); with CAKI-1 it was > 100 µM (inactive); in the assay with OVCAR-3 it was > 100 µM (inactive); in the assay with OVCAR-4, > 100 µM (inactive); in the assay with HOP-62, > 100 µM (inactive); with LOX IMVI it was > 100 µM (inactive). The GI50 in the assay with UO-31 was > 100 µM (inactive); in the assay with TK-10, > 100 µM (inactive); with OVCAR-8, > 100 µM (inactive); in the assay on RXF 393 it was 54.7 µM (inactive); in the assay on SK-MEL-2 it was > 100 µM (inactive); with UACC-62 it was > 100 µM (inactive). Also, the GI50 in the assay with NCI-H522 is > 100 µM (inactive).
For the compound `CC(=O)c1c2c(cc3c1CC1(C3)Cc3cc4c(c(C(C)=O)c3C1)CCC4)CCC2`, the GI50 in the assay on HOP-92, in the assay with CAKI-1, with OVCAR-3, with OVCAR-4, in the assay on HOP-62 and in the assay with LOX IMVI was > 100 µM (inactive) in each case. The GI50 in the assay with UO-31, in the assay on TK-10, with OVCAR-8, with SR, with RXF 393 and in the assay with UACC-62 was > 100 µM (inactive) throughout. Further, in the assay on NCI-H522, the GI50 is > 100 µM (inactive).
As to `O=c1cc2ccccc2nn1Cc1cccc(Cl)c1`, the GI50 with HOP-92 is > 100 µM (inactive); in the assay with CAKI-1, > 100 µM (inactive); in the assay on OVCAR-3, 62.2 µM (inactive); in the assay on OVCAR-4, > 100 µM (inactive); with HOP-62, > 100 µM (inactive); in the assay on LOX IMVI it was > 100 µM (inactive). In addition, the GI50 is 37.5 µM (inactive) in the assay with UO-31; > 100 µM (inactive) in the assay on TK-10; 73.3 µM (inactive) in the assay with OVCAR-8; > 100 µM (inactive) in the assay with SK-MEL-2; > 100 µM (inactive) in the assay with UACC-62.
With `CC(=O)OC1(C#N)CC2OC1C1C2N1C(=O)OC(C)(C)C` (stereo not given), the GI50 with HOP-92, in the assay with CAKI-1, in the assay on OVCAR-4, in the assay with HOP-62, in the assay on LOX IMVI and with UO-31 was > 100 µM (inactive) in each case. Also, the GI50 with TK-10, in the assay on OVCAR-8, in the assay with RXF 393, in the assay on SK-MEL-2, with UACC-62 and in the assay with NCI-H522 was > 100 µM (inactive) throughout.
Turning to `O=C(Cc1nc2ccccc2s1)Nc1ccc(Cl)cc1`, the GI50 was > 100 µM (inactive) in the assay on CAKI-1; > 100 µM (inactive) in the assay with OVCAR-3; > 100 µM (inactive) with OVCAR-4; > 100 µM (inactive) in the assay on HOP-62; 60.8 µM (inactive) in the assay on LOX IMVI; > 100 µM (inactive) in the assay on UO-31. Moreover, the GI50 with TK-10 was > 100 µM (inactive); in the assay on OVCAR-8, > 100 µM (inactive); in the assay on SR, > 100 µM (inactive); in the assay with RXF 393, > 100 µM (inactive); with SK-MEL-2 it was 88.9 µM (inactive); in the assay with UACC-62 it was 82.2 µM (inactive). For the same compound, the GI50 in the assay on NCI-H522 was > 100 µM (inactive).
Consider `CCN(CC)CCCC(C)Nc1c(Sc2cnc3cc(Cl)ccc3c2NC(C)CCCN(CC)CC)cnc2cc(Cl)ccc12` (stereo not given), for which the GI50 in the assay on HOP-92 is 1.96 µM (inactive); in the assay with CAKI-1, 1.53 µM (inactive); in the assay on OVCAR-3, 1.9 µM (inactive); in the assay with OVCAR-4, 1.73 µM (inactive); in the assay with LOX IMVI it was 1.78 µM (inactive); in the assay on UO-31, 21.1 µM (inactive). Besides, the GI50 is 1.79 µM (inactive) in the assay with TK-10; 1.69 µM (inactive) with OVCAR-8; 1.67 µM (inactive) in the assay on RXF 393; 1.85 µM (inactive) in the assay on SK-MEL-2; 1.74 µM (inactive) in the assay on UACC-62; 1.73 µM (inactive) in the assay on NCI-H522.
For the compound `CCOC(=O)C1C(=S)NC(=O)C1C#N` (stereo not given), the GI50 in the assay with HOP-92, with CAKI-1, with OVCAR-3, in the assay on OVCAR-4, in the assay on HOP-62 and in the assay with LOX IMVI was > 100 µM (inactive) each time. Moreover, the GI50 in the assay on UO-31, in the assay on TK-10, in the assay on OVCAR-8, with RXF 393, in the assay with SK-MEL-2 and in the assay with UACC-62 was > 100 µM (inactive) each time. Further, the GI50 in the assay on NCI-H522 was > 100 µM (inactive).
Regarding `COc1ccc2c3c1C(=O)CCCC3CO2` (stereo not given), the GI50 in the assay with HOP-92, in the assay on OVCAR-3, with OVCAR-4, in the assay with HOP-62, in the assay on LOX IMVI and with UO-31 was > 100 µM (inactive) throughout. Also, the GI50 in the assay with TK-10, in the assay on OVCAR-8, with RXF 393, with SK-MEL-2, with UACC-62 and in the assay with NCI-H522 was > 100 µM (inactive) in each case.
For `CNCCCCN(C)/[N+]([O-])=N\O`, the GI50 in the assay with HOP-92, with CAKI-1, with OVCAR-3, in the assay on OVCAR-4, with HOP-62 and with UO-31 was > 100 µM (inactive) each time. The GI50 in the assay with OVCAR-8, with RXF 393, in the assay on SK-MEL-2, with UACC-62 and in the assay on NCI-H522 was > 100 µM (inactive) throughout.
For the compound `CC(C)(c1cn(Cc2ccccc2)c2ccccc12)c1cn(Cc2ccccc2)c2ccccc12`, the GI50 was 32.2 µM (inactive) in the assay with HOP-92; > 100 µM (inactive) in the assay with CAKI-1; > 100 µM (inactive) with OVCAR-3; > 100 µM (inactive) in the assay on OVCAR-4; > 100 µM (inactive) in the assay on HOP-62; > 100 µM (inactive) in the assay with LOX IMVI. The GI50 with OVCAR-8 is > 100 µM (inactive); in the assay on SR, > 100 µM (inactive); in the assay on UACC-62, > 100 µM (inactive); in the assay with NCI-H522, 76.9 µM (inactive).
Turning to `CC(SC(=O)Nc1ccc(/N=N/c2ccccc2)cc1)C(=O)O` (stereo not given), the GI50 with CAKI-1 was > 100 µM (inactive); in the assay with OVCAR-3, > 100 µM (inactive); in the assay on OVCAR-4 it was > 100 µM (inactive); with HOP-62, > 100 µM (inactive); with LOX IMVI, > 100 µM (inactive); in the assay with UO-31 it was 68.7 µM (inactive). For the same compound, the GI50 with TK-10 is 58.1 µM (inactive); with OVCAR-8, 57 µM (inactive); in the assay with SR it was 49 µM (inactive); in the assay on RXF 393 it was 73.5 µM (inactive); with SK-MEL-2, > 100 µM (inactive); with UACC-62, 28.8 µM (inactive). Moreover, in the assay on NCI-H522, the GI50 is 68.4 µM (inactive).
Consider `CC1CCC2CC(=O)OC([C@@H]3C(=O)O[C@@H](C4=CCCC4)C4C(C)CCC43)C12` (stereo not given in full), for which the GI50 was 72.6 µM (inactive) in the assay with CAKI-1; 73.1 µM (inactive) with OVCAR-3; > 10 µM (inactive) in the assay with OVCAR-4; > 100 µM (inactive) with HOP-62; > 100 µM (inactive) with LOX IMVI; > 100 µM (inactive) in the assay with UO-31. In addition, the GI50 was 54.5 µM (inactive) in the assay with TK-10; 68.5 µM (inactive) with OVCAR-8; 39 µM (inactive) with SR; > 100 µM (inactive) in the assay with RXF 393; > 100 µM (inactive) with SK-MEL-2; > 100 µM (inactive) in the assay with UACC-62. Moreover, in the assay on NCI-H522, the GI50 is 51.3 µM (inactive).
For `COc1nc(NC2OC(COC(C)=O)C(OC(C)=O)C(OC(C)=O)C2OC(C)=O)c(/N=C(\C)C(C)=O)c(=O)n1C` (stereo not given), the GI50 with HOP-92, with CAKI-1, in the assay with OVCAR-3, in the assay with OVCAR-4, in the assay with HOP-62 and with LOX IMVI was > 100 µM (inactive) throughout. Further, the GI50 in the assay on UO-31, in the assay with TK-10, in the assay on OVCAR-8, in the assay on RXF 393, in the assay on SK-MEL-2 and with UACC-62 was > 100 µM (inactive) throughout.
On to `COc1ccc(-c2cc(=O)c3ccc(O)cc3o2)c(OC)c1OC`, for which the GI50 with HOP-92 is 82.2 µM (inactive); with CAKI-1, 89.3 µM (inactive); with OVCAR-3, 41.9 µM (inactive); in the assay on OVCAR-4, 88.7 µM (inactive); with HOP-62, 92.3 µM (inactive); in the assay with LOX IMVI it was 60.7 µM (inactive). Also, the GI50 is 78.3 µM (inactive) with TK-10; 28.9 µM (inactive) in the assay with RXF 393; 27.2 µM (inactive) with SK-MEL-2; 36.2 µM (inactive) with UACC-62; 25.4 µM (inactive) in the assay on NCI-H522.
Consider `CC(C)(C)c1cc2nc(c1)C(C(F)(F)F)(C(F)(F)F)OB(Br)OC2(C(F)(F)F)C(F)(F)F`, for which the GI50 with CAKI-1 was 0.0414 µM (active); in the assay with OVCAR-3 it was < 0.01 µM (active); with OVCAR-4, < 0.01 µM (active); with HOP-62, 0.0367 µM (active); in the assay with LOX IMVI, 0.0378 µM (active); with UO-31, 0.292 µM (active). Further, the GI50 was 0.0802 µM (active) in the assay on TK-10; < 0.01 µM (active) in the assay on OVCAR-8; 10 µM (inactive) in the assay with RXF 393; 1.47 µM (inactive) in the assay on SK-MEL-2; 0.0176 µM (active) in the assay on UACC-62.
As to `CSc1c(C)c(C)nn1-c1ccccc1`, the GI50 in the assay with CAKI-1, with OVCAR-4, in the assay on LOX IMVI, in the assay on UO-31, in the assay on TK-10 and in the assay with OVCAR-8 was > 100 µM (inactive) each time. The GI50 in the assay with RXF 393, in the assay with SK-MEL-2, in the assay on UACC-62 and in the assay on NCI-H522 was > 100 µM (inactive) throughout.
